Experimental data reported in patent publication US10653651B2, “Kit for treating cancer with low molecular weight components of aurin tricarboxylic acid complex” (Aurin Biotech Inc., priority 2014, dated 2020).

What was measured:
Format in all cases: cell-based, human
Factor H [1] = test: Western blot of Factor H expression in U251 cells; conditions: 10 μM, 1 day, cell extract
Experimental: (§1) Experiment 2 was designed to determine the effect of ATA, AQA, and AHA on the expression and release of Factor H and VEGF by U251 cells. Cells were grown in DMEM for 24 h at 37° C., after which ATA, AQA, or AHA was added to the medium at a final concentration of 10 μM and incubation carried out for a further 24 h. The medium was drawn off, and the cells washed with PBS. Lysis buffer was then added to the cells. Forty microliters of the cell lysate, or the supernatant media, were loaded onto 12% polyacrylamide gels and separated under non-reducing conditions (70 V, 3-6 h). Following SDS-PAGE, proteins were transferred to a PVDF membrane (Bio-RadTM, CA) at 30 mA for 2 h. The membranes were blocked with 5% milk in PBS-T (80 mM Na2HPO4, 20 mM NaH2PO4, 100 mM NaCl, 0.1% Tween 20, pH 7.4) for 1 h, and incubated overnight at 4° C. with primary antibodies for Factor H (CytotechTM, goat 1/1000) and for VEGF (MilliporeTM, rabbit 1/2000). The membranes were then washed 3 times with PBST. They were then treated with an appropriate horseradish peroxidase (HRP)-conjugated secondary antibody for 3 h at room temperature. The secondary antibodies were anti-rabbit IgG (P0448, DAKOTM, Mississauga, Ontario, CA, 1/2,000) and anti-goat IgG (A[…], MilliporeTM, Billerica, Ma, 1/3,000). […]

Factor H [2] = test: Western blot of Factor H expression in BxPC-3 cells; conditions: 10 μM, 1 day, cell extract
Experimental: as §1

VEGF = test: Western blot of VEGF expression and release by A549 cells; conditions: 10 μM, 1 day; for expression of vascular endothelial growth factor (VEGF) in A549 cells: cell extract; for release of VEGF into the extracellular milieu by A549 cells: supernatant
Experimental: Experiment 2 was designed to determine the effect of ATA, AQA, and AHA on the expression and release of Factor H and VEGF by U251 cells. Cells were grown in DMEM for 24 h at 37° C., after which ATA, AQA, or AHA was added to the medium at a final concentration of 10 μM and incubation carried out for a further 24 h. The medium was drawn off, and the cells washed with PBS. Lysis buffer was then added to the cells. Forty microliters of the cell lysate, or the supernatant media, were loaded onto 12% polyacrylamide gels and separated under non-reducing conditions (70 V, 3-6 h). Following SDS-PAGE, proteins were transferred to a PVDF membrane (Bio-Rad™, CA) at 30 mA for 2 h. The membranes were blocked with 5% milk in PBS-T (80 mM Na2HPO4, 20 mM NaH2PO4, 100 mM NaCl, 0.1% Tween 20, pH 7.4) for 1 h, and incubated overnight at 4° C. with primary antibodies for Factor H (Cytotech™, goat 1/1000) and for VEGF (Millipore™, rabbit 1/2000). The membranes were then washed 3 times with PBST. They were then treated with an appropriate horseradish peroxidase (HRP)-conjugated secondary antibody for 3 h at room temperature. The secondary antibodies were anti-rabbit IgG (P0448, DAKO™, Mississauga, Ontario, CA, 1/2,000) and anti-goat IgG (AP106P, Millipore™, Billerica, Ma, 1/3,000). The bands were visualized with an enhanced chemiluminescence system and exposure to photographic film (Hyperfilm ECL™, Amersham™ Pharmacia Biotech, Little Chalfont, UK). For reprobing of membranes with an alternative antibody, the membranes were treated with 10 mL of stripping buffer (3 mL of 1 M Tris-HCl pH 6.7, 10 mL of 10% SDS, 347 μL of 14 M mercaptoethanol, and 36.5 mL deionized water) at 60° C. for 1 h. The membrane was then placed on a shaking incubator for 30 min to clear it of all bound antibodies. The stripped membrane was then treated with a different primary antibody as previously described.
Experiment 6 was designed to determine the effect of ATA, AQA, and AHA on the expression and release of Factor H and VEGF by BxPC-3 cells.
Experiment 10 was designed to determine the effect of ATA, AQA, and AHA on the expression and release of Factor H and VEGF by A549 cells. The protocol was identical to that used in Experiment 6 except A549 cells were used.

| Substance | expression of Factor H in U251 cells (Factor H [1]) | expression of Factor H in BxPC-3 cells (Factor H [2]) | expression of vascular endothelial growth factor (VEGF) in A549 cells (VEGF) | release of VEGF into the extracellular milieu by A549 cells (VEGF) |
| --- | --- | --- | --- | --- |
| aurin hexacarboxylic acid [AHA] | reducing expression | reducing expression | reduced expression | reducing release |
| aurin quadracarboxylic acid [AQA] | reducing expression | reducing expression | reduced expression | reducing release |
